Measured values taken from patent publication US20110294766A1, “16 Alpha, 17 Alpha-Acetal Glucocorticosteroidal Derivatives and their Use” (AstraZeneca AB, priority 2008, published 2011).

Biological target: T1, recombinant human GR (Homo sapiens, UniProt P04150)
T1 construct: purchased Panvera/Invitrogen P2812 (kit P2893)
T1 sequence (P04150 1-777): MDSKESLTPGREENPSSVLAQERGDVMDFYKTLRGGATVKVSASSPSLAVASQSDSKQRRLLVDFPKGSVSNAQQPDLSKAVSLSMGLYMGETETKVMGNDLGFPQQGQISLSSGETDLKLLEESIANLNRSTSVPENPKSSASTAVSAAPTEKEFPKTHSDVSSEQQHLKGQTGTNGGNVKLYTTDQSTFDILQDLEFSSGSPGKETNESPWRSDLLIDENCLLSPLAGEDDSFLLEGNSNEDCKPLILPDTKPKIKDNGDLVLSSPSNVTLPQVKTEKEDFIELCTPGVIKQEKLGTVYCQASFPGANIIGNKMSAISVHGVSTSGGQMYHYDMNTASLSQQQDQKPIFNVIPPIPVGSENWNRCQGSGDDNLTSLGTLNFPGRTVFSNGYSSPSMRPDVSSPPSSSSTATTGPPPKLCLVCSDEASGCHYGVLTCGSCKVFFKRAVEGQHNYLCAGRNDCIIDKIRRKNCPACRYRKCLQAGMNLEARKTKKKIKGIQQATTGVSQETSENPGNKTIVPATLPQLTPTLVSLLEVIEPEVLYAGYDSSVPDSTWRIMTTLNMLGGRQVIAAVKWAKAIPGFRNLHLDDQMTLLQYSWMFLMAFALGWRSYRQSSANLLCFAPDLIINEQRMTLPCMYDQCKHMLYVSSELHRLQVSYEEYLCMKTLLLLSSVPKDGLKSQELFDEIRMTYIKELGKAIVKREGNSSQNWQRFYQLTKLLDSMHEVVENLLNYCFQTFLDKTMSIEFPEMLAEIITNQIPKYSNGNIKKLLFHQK
Assay: Human Glucocorticoid Receptor (GR) Assay (fluorescence polarization, Panvera/Invitrogen kit)
Conditions: GS Red tracer, 2 hours at room temperature, 100% control 10 μM Dexamethasone, read-out: Inhibition of GR binding, IC50
Protocol: Human Glucocorticoid Receptor (GR) Assay The assay is based on a commercial kit from Panvera/Invitrogen (Part number P2893). The assay technology is fluorescence polarization. The kit utilises recombinant human GR (Panvera, Part number P2812), a Fluoromone™ labelled tracer (GS Red, Panvera, Part number P2894) and a Stabilizing Peptide 10× (Panvera, Part number P2815). The GR and Stabilizing Peptide reagents are stored at −70° C. while the GS Red is stored at −20° C. Also included in the kit are 1M DTT (Panvera, Part number P2325, stored at −20° C.) and GR Screening buffer 10× (Panvera, Part number P2814, stored at −70° C. initially but once thawed stored at room temperature). Avoid repeated freeze/thaws for all reagents. The GR Screening buffer 10× comprises 100 mM potassium phosphate, 200 mM sodium molybdate, 1 mM EDTA and 20% DMSO. Test compounds (1 μL) and controls (1 μL) in 100% DMSO were added to black polystyrene 384-well plates (Greiner low volume black flat-bottom, part number 784076). 0% control was 100% DMSO and 100% control was 10 μM Dexamethasone. Background solution (8 μL; assay buffer 10×, Stabilizing Peptide, DTT and ice cold MQ water) was added to the background wells. GS Red solution (7 μL; assay buffer 10×, Stabilizing Peptide, DTT, GS Red and ice cold water) was added to all wells except background wells. GR solution (7 μL; assay buffer 10×, Stabilizing Peptide, DTT, GR and ice cold water) was added to all wells. The plate was sealed and incubated in a dark at room temperature for 2 hours. The plate was read in an Analyst plate reader (LJL Biosystems/Molecular Devices Corporation) or other similar plate reader capable of recording fluorescence polarization (excitation wavelength 530 nm, emission wavelength 590 nm and a dichroic mirror at 561 nm).

C[C@]12C=CC(=O)C=C1[C@@H](F)C[C@H]1[C@@H]3C[C@H]4OC(c5cccs5)O[C@@]4(C(=O)SCF)[C@@]3(C)C[C@H](O)[C@@]12F (stereo partly drawn) [Example 15, S-(Fluoromethyl)(4aS,4bR,5S,6aS,6bS,9aR,10aS,10bS,12S)-4b,12-difluoro-5-hydroxy-4a,6a-dimethyl-2-oxo-8-(2-thienyl)-2,4a,4b,5,6,6a,9a,10,10a,10b,11,12-dodecahydro-6bH-naphtho[2′,1′:4,5]indeno[1,2-d][1,3]dioxole-6b-carbothioate]
IC50: 1 nM

C[C@]12C=CC(=O)C=C1[C@@H](F)C[C@H]1[C@@H]3C[C@H]4OC(c5ccc6ncccc6c5)O[C@@]4(C(=O)SCC#N)[C@@]3(C)C[C@H](O)[C@@]12F (stereo partly drawn) [Example 16, S-(Cyanomethyl)(4aS,4bR,5S,6aS,6bS,9aR,10aS,10bS,12S)-4b,12-difluoro-5-hydroxy-4a,6a-dimethyl-2-oxo-8-quinolin-6-yl-2,4a,4b,5,6,6a,9a,10,10a,10b,11,12-dodecahydro-6bH-naphtho[2′,1′:4,5]indeno[1,2-d][1,3]dioxole-6b-carbothioate]
IC50: 1.5 nM

Cc1ccc(C2O[C@@H]3C[C@H]4[C@@H]5C[C@H](F)C6=CC(=O)C=C[C@]6(C)[C@@]5(F)[C@@H](O)C[C@]4(C)[C@]3(C(=O)SCF)O2)cc1 (stereo partly drawn) [Example 17, S-(Fluoromethyl)(4aS,4bR,5S,6aS,6bS,9aR,10aS,10bS,12S)-4b,12-difluoro-5-hydroxy-4a,6a-dimethyl-8-(4-methylphenyl)-2-oxo-2,4a,4b,5,6,6a,9a,10,10a,10b,11,12-dodecahydro-6bH-naphtho[2′,1′:4,5]indeno[1,2-d][1,3]dioxole-6b-carbothioate]
IC50: 1.8 nM

C[C@]12C=CC(=O)C=C1[C@@H](F)C[C@H]1[C@@H]3C[C@H]4OC(c5ccc(C(F)(F)F)cc5)O[C@@]4(C(=O)SCF)[C@@]3(C)C[C@H](O)[C@@]12F (stereo partly drawn) [Example 18, S-(Fluoromethyl)(4aS,4bR,5S,6aS,6bS,9aR,10aS,10bS,12S)-4b,12-difluoro-5-hydroxy-4a,6a-dimethyl-2-oxo-8-[4-(trifluoromethyl)phenyl]-2,4a,4b,5,6,6a,9a,10,10a,10b,11,12-dodecahydro-6bH-naphtho[2′,1′:4,5]indeno[1,2-d][1,3]dioxole-6b-carbothioate]
IC50: 3.7 nM

C[C@]12C=CC(=O)C=C1[C@@H](F)C[C@H]1[C@@H]3C[C@H]4OC(c5ccc(OC(F)(F)F)cc5)O[C@@]4(C(=O)SCC#N)[C@@]3(C)C[C@H](O)[C@@]12F (stereo partly drawn) [Example 19, S-(Cyanomethyl)(4aS,4bR,5S,6aS,6bS,9aR,10aS,10bS,12S)-4b,12-difluoro-5-hydroxy-4a,6a-dimethyl-2-oxo-8-[4-(trifluoromethoxy)phenyl]-2,4a,4b,5,6,6a,9a,10,10a,10b,11,12-dodecahydro-6bH-naphtho[2′,1′:4,5]indeno[1,2-d][1,3]dioxole-6b-carbothioate]
IC50: 4.8 nM

C[C@]12C=CC(=O)C=C1[C@@H](F)C[C@H]1[C@@H]3C[C@H]4OC(c5ccc(C(F)(F)F)cc5)O[C@@]4(C(=O)SCC#N)[C@@]3(C)C[C@H](O)[C@@]12F (stereo partly drawn) [Example 20, S-(Cyanomethyl)(4aS,4bR,5S,6aS,6bS,9aR,10aS,10bS,12S)-4b,12-difluoro-5-hydroxy-4a,6a-dimethyl-2-oxo-8-[4-(trifluoromethyl)phenyl]-2,4a,4b,5,6,6a,9a,10,10a,10b,11,12-dodecahydro-6bH-naphtho[2′,1′:4,5]indeno[1,2-d][1,3]dioxole-6b-carbothioate]
IC50: 2.4 nM

C[C@]12C=CC(=O)C=C1[C@@H](F)C[C@H]1[C@@H]3C[C@H]4OC(c5ccccc5F)O[C@@]4(C(=O)SCF)[C@@]3(C)C[C@H](O)[C@@]12F (stereo partly drawn) [Example 21, S-(Fluoromethyl)(4aS,4bR,5S,6aS,6bS,9aR,10aS,10bS,12S)-4b,12-difluoro-8-(2-fluorophenyl)-5-hydroxy-4a,6a-dimethyl-2-oxo-2,4a,4b,5,6,6a,9a,10,10a,10b,11,12-dodecahydro-6bH-naphtho[2′,1′:4,5]indeno[1,2-d][1,3]dioxole-6b-carbothioate]
IC50: 0.57 nM

Cc1ccccc1C1O[C@@H]2C[C@H]3[C@@H]4C[C@H](F)C5=CC(=O)C=C[C@]5(C)[C@@]4(F)[C@@H](O)C[C@]3(C)[C@]2(C(=O)SCF)O1 (stereo partly drawn) [Example 22, S-(Fluoromethyl)(4aS,4bR,5S,6aS,6bS,9aR,10aS,10bS,12S)-4b,12-difluoro-5-hydroxy-4a,6a-dimethyl-8-(2-methylphenyl)-2-oxo-2,4a,4b,5,6,6a,9a,10,10a,10b,11,12-dodecahydro-6bH-naphtho[2′,1′:4,5]indeno[1,2-d][1,3]dioxole-6b-carbothioate]
IC50: 0.85 nM

C[C@]12C=CC(=O)C=C1[C@@H](F)C[C@H]1[C@@H]3C[C@H]4OC(c5cccc(F)c5)O[C@@]4(C(=O)SCC#N)[C@@]3(C)C[C@H](O)[C@@]12F (stereo partly drawn) [Example 23, S-(Cyanomethyl)(4aS,4bR,5S,6aS,6bS,9aR,10aS,10bS,12S)-4b,12-difluoro-8-(3-fluorophenyl)-5-hydroxy-4a,6a-dimethyl-2-oxo-2,4a,4b,5,6,6a,9a,10,10a,10b,11,12-dodecahydro-6bH-naphtho[2′,1′:4,5]indeno[1,2-d][1,3]dioxole-6b-carbothioate]
IC50: 0.99 nM

Cc1ccc(C2O[C@@H]3C[C@H]4[C@@H]5C[C@H](F)C6=CC(=O)C=C[C@]6(C)[C@@]5(F)[C@@H](O)C[C@]4(C)[C@]3(C(=O)SCC#N)O2)cc1 (stereo partly drawn) [Example 24, S-(Cyanomethyl)(4aS,4bR,5S,6aS,6bS,9aR,10aS,10bS,12S)-4b,12-difluoro-5-hydroxy-4a,6a-dimethyl-8-(4-methylphenyl)-2-oxo-2,4a,4b,5,6,6a,9a,10,10a,10b,11,12-dodecahydro-6bH-naphtho[2′,1′:4,5]indeno[1,2-d][1,3]dioxole-6b-carbothioate]
IC50: 1.2 nM

C[C@]12C=CC(=O)C=C1[C@@H](F)C[C@H]1[C@@H]3C[C@H]4OC(c5cccc(C#N)c5)O[C@@]4(C(=O)SCC#N)[C@@]3(C)C[C@H](O)[C@@]12F (stereo partly drawn) [Example 25, S-(Cyanomethyl)(4aS,4bR,5S,6aS,6bS,9aR,10aS,10bS,12S)-8-(3-cyanophenyl)-4b,12-difluoro-5-hydroxy-4a,6a-dimethyl-2-oxo-2,4a,4b,5,6,6a,9a,10,10a,10b,11,12-dodecahydro-6bH-naphtho[2′,1′:4,5]indeno[1,2-d][1,3]dioxole-6b-carbothioate]
IC50: 0.7 nM

C[C@]12C=CC(=O)C=C1[C@@H](F)C[C@H]1[C@@H]3C[C@H]4OC(c5ccc(F)cc5)O[C@@]4(C(=O)SCC#N)[C@@]3(C)C[C@H](O)[C@@]12F (stereo partly drawn) [Example 26, S-(Cyanomethyl)(4aS,4bR,5S,6aS,6bS,9aR,10aS,10bS,12S)-4b,12-difluoro-8-(4-fluorophenyl)-5-hydroxy-4a,6a-dimethyl-2-oxo-2,4a,4b,5,6,6a,9a,10,10a,10b,11,12-dodecahydro-6bH-naphtho[2′,1′:4,5]indeno[1,2-d][1,3]dioxole-6b-carbothioate]
IC50: 1.1 nM

C[C@]12C=CC(=O)C=C1[C@@H](F)C[C@H]1[C@@H]3C[C@H]4OC(c5ccccc5F)O[C@@]4(C(=O)SCC#N)[C@@]3(C)C[C@H](O)[C@@]12F (stereo partly drawn) [Example 27, S-(Cyanomethyl)(4aS,4bR,5S,6aS,6bS,9aR,10aS,10bS,12S)-4b,12-difluoro-8-(2-fluorophenyl)-5-hydroxy-4a,6a-dimethyl-2-oxo-2,4a,4b,5,6,6a,9a,10,10a,10b,11,12-dodecahydro-6bH-naphtho[2′,1′:4,5]indeno[1,2-d][1,3]dioxole-6b-carbothioate]
IC50: 1.1 nM
